Experimental data: paper PMC8838415, “Discovery of Novel Pleuromutilin Derivatives as Potent Antibacterial Agents for the Treatment of MRSA Infection” (Molecules, 2022)
≈ marks a conversion by molar mass, not a printed value.

Tests used:
MRSA = experiment: Neutropenic murine thigh infection model; type: in vivo, mice
Procedure: The neutropenic murine thigh infection model experiment was performed as described in the literature. Six-week-old SPF-ICR female mice weighing 24–28 g were used for this study. The mice were injected with cyclophosphamide (Mead Johnson Pharmaceuticals, Evansville, Indiana—IN, USA) at a dose of 150 mg/kg 4 days and at a dose of 100 mg/kg 1 day before the experiment to reduce neutrophils and achieve immunosuppression (<0.1 × 10^9/L). A total of 0.1 mL MH broth (MRSA concentration approximately 10^7 CFU/mL) was injected into the posterior thigh of mice to establish the infection model. After the thighs of the mice were infected for 2 h, these mice were randomly divided into 3 groups (3 per group). […] A total of 24 h after the completion of the drug, the mice were euthanized and their thigh tissues were collected. Then, their thigh tissues were weighed and homogenized, respectively, in 3 mL of iced sterile saline. Tissue homogenate was serially diluted 10-fold and plated on MH agar. The resulting bacterial colonies were determined after incubation for 24 h.

MRSA ATCC 43300 [1] = experiment: Constant concentration time-kill curves; type: cell-based, Staphylococcus aureus; conditions: 2× MIC, in 9 h
Procedure: The time-kill curve experiments of compound 8 and compound 9 were performed according to a previous report in triplicate. The logarithmic phase of MRSA 43300 was diluted to about 10^6 CFU/mL with MH broth. […] All samples were shaken at 37 °C. Samples (100 μL) were taken at 0, 3, 6, 9 and 24 h from the mixtures. Each sample was diluted decuple continuously with sterile saline. Then, 20 μL of the diluted sample was plated on the sterile MH agar plate and incubated for 22–26 h at 37 °C. The total bacteria on the plates were counted as CFU/mL to calculate the bacterial colonies. The time-kill curve was constructed by scheming log10 CFU/mL of bacteria counts versus time.

[2] = tested on: methicillin-resistant S. aureus (ATCC 43300); experiment: MIC and MBC, broth dilution, MRSA ATCC 43300; type: cell-based; conditions: Staphylococcus aureus
Procedure, shortened: (§1)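 Compounds, in 2.5% tween-80/2.5% DMSO, serially diluted in MH broth over 32–0.01 µg/mL with 5 × 10^5 CFU/mL inoculum, triplicates, 22–26 h at 37 °C; MIC = lowest concentration with no visible growth. MBC from plating non-turbid wells on MH agar, further 22–26 h at 37 °C.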

S. aureus (144) = experiment: MIC and MBC, broth dilution, S. aureus 144; type: cell-based; conditions: Staphylococcus aureus; S. aureus 144 (clinical strain)
Procedure, shortened: as §1

MRSA ATCC 43300 [3] = experiment: Post antibiotic effect (PAE)

- MIC [2]: 0.06 µg/mL (≈ 0.127 µM)
- MIC (S. aureus (144)): 0.5 µg/mL (≈ 1.06 µM)
Compound: C=C[C@]1(C)C[C@@H](OC(=O)CNc2ccc(F)cc2)[C@]2(C)[C@H](C)CC[C@]3(CCC(=O)[C@H]32)[C@@H](C)[C@@H]1O [Compound 9, 22-(4-Fluoroanilineyl)-22-deoxypleuromutilin]
- reduction of MRSA load in thigh compared with tiamulin (MRSA; 20 mg/kg each, difference to tiamulin group): ~ 0.7 log10 CFU/mL
- reduction of MRSA load in thigh (MRSA; 20 mg/kg intravenously, 24 h, compared to the no-drug control group): ~ 1.3 log10 CFU/mL
- MRSA killed (time-kill) (MRSA ATCC 43300 [1]): 99.9%
- MBC [2]: 0.25 µg/mL (≈ 0.53 µM)
- MBC (S. aureus (144)): 1 µg/mL (≈ 2.12 µM)
- PAE (MRSA ATCC 43300 [3]; exposure to 2× MIC for 2 h): 1.54 h
- PAE (MRSA ATCC 43300 [3]; exposure to 4× MIC for 2 h): 1.71 h
